The source made the active and inactive calls. The calls are words filed in the database; no cut-off is given here.
Columns and labels:
[1] = target: T1, Prolactin-releasing peptide receptor (Homo sapiens) (UniProt P49683); assay: Antagonist activity at human GPR10 expressed in CHO cells assessed as intracellular calcium release upto 10 uM by Fluo-4 AM dye based calcium mobilization assay; assay type: functional, cell-based
T1 sequence (whole entry): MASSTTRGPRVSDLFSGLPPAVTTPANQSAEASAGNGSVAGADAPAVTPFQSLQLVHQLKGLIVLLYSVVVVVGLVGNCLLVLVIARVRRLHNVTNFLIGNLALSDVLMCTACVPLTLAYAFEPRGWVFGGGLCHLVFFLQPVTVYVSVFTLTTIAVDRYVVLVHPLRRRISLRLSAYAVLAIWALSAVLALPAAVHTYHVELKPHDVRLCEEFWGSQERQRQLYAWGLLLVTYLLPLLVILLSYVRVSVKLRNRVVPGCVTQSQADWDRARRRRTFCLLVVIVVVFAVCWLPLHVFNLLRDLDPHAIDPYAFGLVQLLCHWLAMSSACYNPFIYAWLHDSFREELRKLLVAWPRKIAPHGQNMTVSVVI

[2] = target: T2, Neuropeptide FF receptor 2 (Homo sapiens, UniProt Q9Y5X5); assay: Antagonist potency at human NPFFR2 expressed in CHO cell membrane assessed as inhibition of NPVF induced cAMP response incubated for 1 hr by Topcount counting method; assay type: functional, cell membranes; settings: read-out: pA2 (converted)
[3] = Induction of naltrexone-precipitated withdrawal syndrome in sc dosed C57BL/6N mouse assessed as wet dog shake counts administered for 8 days followed by naltrexone addition on day 9 after 2 hrs post last dose and measured after 30 mins; assay type: toxicity, organism-based; settings: in vivo, 216.5 h, time 12990 min
Mu-type opioid receptor [4] = target: T3, Mu-type opioid receptor (Homo sapiens, UniProt P35372); assay: Agonist activity at human MOP expressed in HEK293 cells coexpressing GloSensor-20F assessed as inhibition of forskolin-induced cAMP accumulation relative to control; assay type: functional, cell-based; settings: filed as agonist
Mu-type opioid receptor [5] = target: T3, Mu-type opioid receptor; assay: Agonist activity at human Rluc8-tagged MOP expressed in HEK293 cells coexpressing eYFP-tagged beta-arrestin-2 assessed as beta-arrestin-2 recruitment incubated for 5 mins by luminometer analysis relative to control; assay type: functional, cell-based
[6] = target: T4, Pyroglutamylated RF-amide peptide receptor (Homo sapiens) (UniProt Q96P65); assay: Agonist activity at human GPR103 expressed in CHO cells assessed as intracellular calcium release upto 10 uM by Fluo-4 AM dye based calcium mobilization assay; assay type: functional, cell-based
T4 sequence (whole entry): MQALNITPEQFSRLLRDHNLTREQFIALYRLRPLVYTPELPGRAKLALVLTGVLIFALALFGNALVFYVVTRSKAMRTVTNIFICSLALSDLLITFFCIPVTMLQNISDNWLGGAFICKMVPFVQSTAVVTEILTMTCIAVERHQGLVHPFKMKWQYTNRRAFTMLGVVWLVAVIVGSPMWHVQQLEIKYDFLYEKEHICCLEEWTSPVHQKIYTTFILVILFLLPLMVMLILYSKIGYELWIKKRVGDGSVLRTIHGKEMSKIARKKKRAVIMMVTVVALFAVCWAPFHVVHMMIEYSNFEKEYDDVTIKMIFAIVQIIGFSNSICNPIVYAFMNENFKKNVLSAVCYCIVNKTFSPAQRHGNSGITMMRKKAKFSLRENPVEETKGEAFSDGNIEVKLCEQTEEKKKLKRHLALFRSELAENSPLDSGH

[7] = Cmax in mouse at 10 mg/kg, sc measured upto 24 hrs by LC-MS/MS analysis; assay type: ADME, organism-based; settings: in vivo
Mus musculus [8] = assay: Antinociceptive activity in mouse at 4.2 umol/kg, sc administered chronically and measured on day 1; assay type: functional, organism-based; settings: dose 4.2 µmol/kg
Mu-type opioid receptor [9] = target: T3, Mu-type opioid receptor; assay: Agonist activity at human Rluc8-tagged MOP expressed in HEK293 cells coexpressing eYFP-tagged beta-arrestin-2 assessed as beta-arrestin-2 recruitment incubated for 5 mins by luminometer analysis; assay type: functional, cell-based; settings: read-out: EC50
[10] = target: Delta-type opioid receptor (Homo sapiens) (UniProt P41143); assay: Agonist activity at human DOP expressed in HEK293 cells assessed as inhibition of forskolin-induced cAMP accumulation; assay type: functional, cell-based; settings: filed as agonist
[11] = target: Kappa-type opioid receptor (Homo sapiens, UniProt P41145); assay: Partial agonist activity at human KOR expressed in HEK293 cells assessed as forskolin-induced cAMP accumulation in presence of IBMX; assay type: functional, cell-based; settings: filed as partial agonist
[12] = Induction of motor coordination impairment in C57BL/6 mouse at 10.5 mg/kg, sc by rotarod assay; assay type: toxicity, organism-based; settings: in vivo
Mus musculus [13] = assay: Antinociceptive activity in mouse at 4.2 umol/kg, sc administered chronically and measured on day 8; assay type: functional, organism-based; settings: dose 4.2 µmol/kg
[14] = Induction of naltrexone-precipitated withdrawal syndrome in sc dosed C57BL/6N mouse assessed as paw tremor administered for 8 days followed by naltrexone addition on day 9 after 2 hrs post last dose and measured after 30 mins; assay type: toxicity, organism-based; settings: in vivo, 216.5 h, time 12990 min
Mus musculus [15] = assay: Antinociceptive activity in mouse at 2.5 to 10 mg/kg, sc measured after 6 hrs by tail immersion test; assay type: functional, organism-based; settings: dose 2.5-10 mg/kg
[16] = target: T2, Neuropeptide FF receptor 2; assay: Antagonist activity at human NPFFR2 expressed in CHO cell membrane assessed as inhibition of NPVF induced cAMP response at 5 uM incubated for 1 hr by Topcount counting method relative to control; assay type: functional, cell membranes; design: scale not given: the % may be the effect or the level left; settings: filed as antagonist
[17] = Half life in mouse at 10 mg/kg, sc measured upto 24 hrs by LC-MS/MS analysis; assay type: ADME, organism-based; settings: in vivo
[18] = target: T2, Neuropeptide FF receptor 2; assay: Displacement of [125I]-1DMeNPFF from human NPFFR2 expressed in CHO cell membrane at 0.05 uM incubated for 1 hr by Topcount counting method relative to control; assay type: cell membranes; settings: filed as antagonist
Mus musculus [19] = assay: Antinociceptive activity in mouse at 2.5 to 10 mg/kg, sc measured after 24 hrs by tail immersion test; assay type: functional, organism-based; settings: dose 2.5-10 mg/kg
[20] = target: Nociceptin receptor (Homo sapiens) (UniProt P41146); assay: Antagonist activity at human NOR expressed in HEK293 cells assessed as forskolin-induced cAMP accumulation in presence of IBMX; assay type: functional, cell-based; settings: filed as antagonist
[21] = Tmax in mouse at 10 mg/kg, sc measured upto 24 hrs by LC-MS/MS analysis; assay type: ADME, organism-based; settings: in vivo
[22] = target: T5, Neuropeptide FF receptor 1 (Homo sapiens, UniProt Q9GZQ6); assay: Antagonist potency at human NPFFR1 expressed in CHO cell membrane assessed as inhibition of NPVF induced cAMP response incubated for 1 hr by Topcount counting method; assay type: functional, cell membranes; settings: read-out: pA2 (converted)
[23] = target: T1, Prolactin-releasing peptide receptor (Homo sapiens); assay: Agonist activity at human GPR10 expressed in CHO cells assessed as intracellular calcium release upto 10 uM by Fluo-4 AM dye based calcium mobilization assay; assay type: functional, cell-based
[24] = target: T4, Pyroglutamylated RF-amide peptide receptor (Homo sapiens); assay: Antagonist activity at human GPR103 expressed in CHO cells assessed as intracellular calcium release upto 10 uM by Fluo-4 AM dye based calcium mobilization assay; assay type: functional, cell-based
[25] = target: KiSS-1 receptor (Homo sapiens) (UniProt Q969F8); assay: Agonist activity at human GPR54 expressed in CHO cells assessed as intracellular calcium release upto 10 uM by Fluo-4 AM dye based calcium mobilization assay; assay type: functional, cell-based
Mus musculus [26] = assay: Antinociceptive activity in mouse at 4.2 umol/kg, sc administered daily and measured on day 1 and 8; assay type: functional, organism-based; settings: dose 4.2 µmol/kg
[27] = target: T2, Neuropeptide FF receptor 2; assay: Displacement of [125I]-1DMeNPFF from human NPFFR2 expressed in CHO cell membrane incubated for 1 hr by Topcount counting method; assay type: cell membranes
[28] = target: T5, Neuropeptide FF receptor 1; assay: Displacement of [125I]-1DMeNPFF from human NPFFR1 expressed in CHO cell membrane at 0.5 uM incubated for 1 hr by Topcount counting method relative to control; assay type: cell membranes
[29] = Induction of naltrexone-precipitated withdrawal syndrome in sc dosed C57BL/6N mouse assessed as diarrhea administered for 8 days followed by naltrexone addition on day 9 after 2 hrs post last dose and measured after 30 mins; assay type: toxicity, organism-based; settings: in vivo, 216.5 h, time 12990 min
Mu-type opioid receptor [30] = target: T3, Mu-type opioid receptor; assay: Agonist activity at human MOP expressed in HEK293 cells coexpressing GloSensor-20F assessed as inhibition of forskolin-induced cAMP accumulation; assay type: functional, cell-based
[31] = Drug concentration in mouse plasma at 10 mg/kg, sc measured after 2 hrs by LC-MS/MS analysis; assay type: ADME, organism-based
[32] = Toxicity in C57BL/6N mouse assessed as induction of respiratory depression by measuring decrease in pulmonary rate at 3.2 to 31.8 mg/kg, sc by plethysmography; assay type: organism-based; settings: in vivo, dose 3.2-31.8 mg/kg
[33] = target: T5, Neuropeptide FF receptor 1; assay: Antagonist activity at human NPFFR1 expressed in CHO cell membrane assessed as inhibition of NPVF induced cAMP response at 5 uM incubated for 1 hr by Topcount counting method relative to control; assay type: functional, cell membranes; design: scale not given: the % may be the effect or the level left
[34] = target: KiSS-1 receptor (Homo sapiens) (UniProt Q969F8); assay: Antagonist activity at human GPR54 expressed in CHO cells assessed as intracellular calcium release upto 10 uM by Fluo-4 AM dye based calcium mobilization assay; assay type: functional, cell-based
[35] = target: T5, Neuropeptide FF receptor 1; assay: Displacement of [125I]-1DMeNPFF from human NPFFR1 expressed in CHO cell membrane incubated for 1 hr by Topcount counting method; assay type: cell membranes
[36] = Induction of naltrexone-precipitated withdrawal syndrome in sc dosed C57BL/6N mouse assessed as high jumping score administered for 8 days followed by naltrexone addition on day 9 after 2 hrs post last dose and measured after 30 mins; assay type: toxicity, organism-based; settings: in vivo, 216.5 h, time 12990 min

T2 sequence (Q9Y5X5 whole entry): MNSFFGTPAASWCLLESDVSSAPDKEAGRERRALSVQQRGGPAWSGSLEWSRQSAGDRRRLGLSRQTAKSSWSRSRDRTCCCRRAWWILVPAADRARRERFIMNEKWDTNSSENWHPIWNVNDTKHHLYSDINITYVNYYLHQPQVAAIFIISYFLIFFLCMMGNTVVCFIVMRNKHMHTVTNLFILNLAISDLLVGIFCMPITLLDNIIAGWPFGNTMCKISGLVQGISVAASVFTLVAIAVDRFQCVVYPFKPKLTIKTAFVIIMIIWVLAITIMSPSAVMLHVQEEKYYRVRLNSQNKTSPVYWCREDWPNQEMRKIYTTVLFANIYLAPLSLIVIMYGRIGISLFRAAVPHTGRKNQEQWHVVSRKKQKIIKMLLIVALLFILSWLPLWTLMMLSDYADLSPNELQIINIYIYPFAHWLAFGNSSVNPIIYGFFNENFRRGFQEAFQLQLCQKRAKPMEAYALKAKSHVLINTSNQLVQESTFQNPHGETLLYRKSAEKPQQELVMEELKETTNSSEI
T3 sequence (P35372 whole entry): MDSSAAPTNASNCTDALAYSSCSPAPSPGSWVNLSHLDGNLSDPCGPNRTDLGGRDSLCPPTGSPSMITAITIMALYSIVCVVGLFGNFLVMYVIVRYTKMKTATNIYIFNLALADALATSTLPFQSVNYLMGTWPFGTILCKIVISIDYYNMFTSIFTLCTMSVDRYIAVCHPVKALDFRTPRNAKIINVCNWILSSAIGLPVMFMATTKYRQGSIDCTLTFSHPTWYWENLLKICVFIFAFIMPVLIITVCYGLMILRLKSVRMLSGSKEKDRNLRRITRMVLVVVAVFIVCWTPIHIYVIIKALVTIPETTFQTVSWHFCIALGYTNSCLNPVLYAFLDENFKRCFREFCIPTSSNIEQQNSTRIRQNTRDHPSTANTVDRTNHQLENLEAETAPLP
T5 sequence (Q9GZQ6 whole entry): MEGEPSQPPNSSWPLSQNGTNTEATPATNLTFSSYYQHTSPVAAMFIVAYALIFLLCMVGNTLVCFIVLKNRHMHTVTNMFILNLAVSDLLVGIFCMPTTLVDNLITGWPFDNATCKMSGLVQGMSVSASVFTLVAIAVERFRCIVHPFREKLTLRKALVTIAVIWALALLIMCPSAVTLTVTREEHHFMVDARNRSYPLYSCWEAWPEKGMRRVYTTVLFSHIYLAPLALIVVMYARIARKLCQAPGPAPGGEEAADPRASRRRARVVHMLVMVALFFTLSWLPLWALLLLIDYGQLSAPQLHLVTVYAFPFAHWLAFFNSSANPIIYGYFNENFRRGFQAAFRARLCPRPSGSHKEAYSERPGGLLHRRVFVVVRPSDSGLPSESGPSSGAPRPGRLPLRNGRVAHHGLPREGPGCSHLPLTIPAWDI
KiSS-1 receptor (Homo sapiens), sequence (Q969F8 whole entry): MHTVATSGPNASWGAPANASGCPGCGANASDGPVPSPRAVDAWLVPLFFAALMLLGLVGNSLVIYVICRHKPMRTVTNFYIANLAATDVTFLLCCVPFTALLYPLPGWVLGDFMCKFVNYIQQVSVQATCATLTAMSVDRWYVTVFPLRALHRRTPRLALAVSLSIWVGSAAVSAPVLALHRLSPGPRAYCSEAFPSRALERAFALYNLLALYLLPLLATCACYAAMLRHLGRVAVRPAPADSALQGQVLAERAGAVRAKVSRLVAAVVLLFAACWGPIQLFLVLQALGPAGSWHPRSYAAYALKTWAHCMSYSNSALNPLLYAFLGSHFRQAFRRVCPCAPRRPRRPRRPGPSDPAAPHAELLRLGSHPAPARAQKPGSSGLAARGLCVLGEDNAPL
Delta-type opioid receptor (Homo sapiens), sequence (P41143 whole entry): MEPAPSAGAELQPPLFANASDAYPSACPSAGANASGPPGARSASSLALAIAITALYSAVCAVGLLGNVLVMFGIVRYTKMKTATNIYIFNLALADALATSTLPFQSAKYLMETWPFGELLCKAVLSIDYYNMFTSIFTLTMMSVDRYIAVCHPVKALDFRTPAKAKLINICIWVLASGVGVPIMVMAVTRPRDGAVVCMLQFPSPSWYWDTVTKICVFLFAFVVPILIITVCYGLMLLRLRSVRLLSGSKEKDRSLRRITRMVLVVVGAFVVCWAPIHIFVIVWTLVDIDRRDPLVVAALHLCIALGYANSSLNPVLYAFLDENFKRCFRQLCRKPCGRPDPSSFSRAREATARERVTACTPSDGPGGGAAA
Nociceptin receptor (Homo sapiens), sequence (P41146 whole entry): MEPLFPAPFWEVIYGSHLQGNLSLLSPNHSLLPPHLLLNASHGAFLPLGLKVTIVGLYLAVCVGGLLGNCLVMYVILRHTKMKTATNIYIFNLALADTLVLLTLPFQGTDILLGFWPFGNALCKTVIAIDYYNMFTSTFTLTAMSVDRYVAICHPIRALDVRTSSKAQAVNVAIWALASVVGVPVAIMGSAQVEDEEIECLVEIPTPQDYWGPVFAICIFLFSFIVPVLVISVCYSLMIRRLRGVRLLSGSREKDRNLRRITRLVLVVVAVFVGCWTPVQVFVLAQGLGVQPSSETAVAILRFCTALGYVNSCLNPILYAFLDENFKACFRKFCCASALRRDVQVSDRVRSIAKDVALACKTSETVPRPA
Kappa-type opioid receptor, sequence (P41145 whole entry): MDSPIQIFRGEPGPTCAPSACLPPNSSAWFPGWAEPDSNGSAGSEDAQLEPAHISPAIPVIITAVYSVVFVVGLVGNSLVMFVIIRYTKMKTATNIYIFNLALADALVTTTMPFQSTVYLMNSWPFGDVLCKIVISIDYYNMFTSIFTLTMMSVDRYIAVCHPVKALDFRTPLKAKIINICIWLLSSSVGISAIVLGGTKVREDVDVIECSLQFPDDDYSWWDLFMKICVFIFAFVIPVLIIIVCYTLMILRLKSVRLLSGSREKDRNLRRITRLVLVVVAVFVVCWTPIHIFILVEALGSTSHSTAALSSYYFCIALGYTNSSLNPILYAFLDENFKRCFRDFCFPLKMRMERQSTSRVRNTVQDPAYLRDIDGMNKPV

Cc1cc(O)cc(C)c1C[C@H](N)C(=O)N(C)[C@H](C)C(=O)N[C@H]1Cc2c(ccc3ccccc23)CN(CCC(=O)N[C@@H](CCCN2CCC(Cc3ccccc3)CC2)C(=O)N[C@@H](Cc2ccccc2)C(N)=O)C1=O
Activity [1]: inactive | Kb [2]: 45.7 nM | Activity [3]: Non-Toxic | Emax (Mu-type opioid receptor [4]): 75% | Emax (Mu-type opioid receptor [5]): 24% | Activity [6]: inactive | Cmax [7]: 805 nM | Activity (Mus musculus [8]): Active | EC50 (Mu-type opioid receptor [9]): > 4000 nM | Activity [10]: Active | Activity [11]: Active | Activity [12]: Non-Toxic | Activity (Mus musculus [13]): inactive | Activity [14]: Non-Toxic | Activity (Mus musculus [15]): Active | Activity [16]: 83% | half-life [17]: 3.3 h | Activity [18]: 57% | Activity (Mus musculus [19]): Active | Activity [20]: Active | Tmax [21]: 2.33 h | Kb [22]: 2450 nM | Activity [23]: inactive | Activity [24]: inactive | Activity [25]: inactive | Activity (Mus musculus [26]): Active | Ki [27]: 32 nM | Activity [28]: 19% | Activity [29]: Non-Toxic | EC50 (Mu-type opioid receptor [30]): 4.5 nM | concentration at 2 h [31]: 837 nM | Activity [32]: Non-Toxic | Activity [33]: 26% | Activity [34]: inactive | Ki [35]: 1310 nM | Activity [36]: Non-Toxic
